Laboratory results published in patent publication US20260248881A1, “PHARMACEUTICAL COMPOSITION COMPRISING FOXM1 INHIBITOR AND IMMUNE CHECKPOINT INHIBITOR FOR PREVENTING OR TREATING CANCER” (National Cancer Center, priority 2022, published 2026).

Test system: FOXM1 and PD-L1
Assay: Immunoblotting of FOXM1 and PD-L1 after FDI-6 or RCM1 treatment
Assay type: cell-based, human
Conditions: lung cancer cell line (PC9) and colorectal cancer cell line (SW480)
Procedure: Human lung cancer cell lines (H1299, PC9), colorectal cancer cell lines (HCT116, SW480), and brain tumor cell lines (U118) were purchased from the American Type Culture Collection (Manassas, VA, USA). H1299, PC9, U118, and SW480 cells were cultured in Roswell Park Memorial Institute (RPMI) medium supplemented with 10% FBS and 1% penicillin/streptomycin, and HCT116 cells were cultured in McCoy's 5A medium supplemented with 10% FBS and 1% penicillin/streptomycin. Cells were maintained at 37° C. in a humidified incubator with 5% CO2.
After washing, appropriate secondary antibodies conjugated to horseradish peroxidase were bound to the membrane, and protein bands were detected using a chemiluminescence kit (Thermo Fisher Scientific, Carlsbad, CA, USA).

**Q.** With `Nc1c(C(=O)Nc2ccc(F)cc2)sc2nc(-c3cccs3)cc(C(F)(F)F)c12` [FDI-6] as the compound, how does the “FOXM1 and PD-L1 expression” value read?
**A.** significantly decreased
